{
  "source": "patent US12285031B2",
  "about": "“Beverage with collagen and additional additives” (WELLDRINKS LTD, priority 2015, dated 2025)",
  "origin": "cited, not measured here",
  "key": {"dermal fibroblasts": {"system": "dermal fibroblasts", "details": "in vitro"}, "[1]": {"details": "adult humans"}},
  "note": "Square brackets hold non-standard residues; d marks the D form. Peptide text beside a SMILES is read from it. Hyp = O=C(O)[C@@H]1C[C@@H](O)CN1",
  "data": [
    {"smiles": "O=C(O)CNC(=O)[C@@H]1C[C@@H](O)CN1", "note": "[Hyp-Gly, hydroxyprolyl-glycine] (H-[Hyp]-Gly-OH)", "values": [
      {"measurement": "cell proliferation of dermal fibroblasts", "setting": "dermal fibroblasts", "result": "enhance cell proliferation"}
    ]},
    {"smiles": "[Mn+2]", "note": "[Mn, Manganese]", "values": [
      {"measurement": "fraction of ingested Mn absorbed", "setting": "[1]", "result": "3-5%"}
    ]},
    {"smiles": "O=C(O)[C@@H]1C[C@@H](O)CN1C(=O)[C@@H]1CCCN1", "note": "[Pro-Hyp, prolyl-hydroxyproline] (H-Pro-[Hyp]-OH)", "values": [
      {"measurement": "cell proliferation of dermal fibroblasts", "setting": "dermal fibroblasts", "result": "enhance cell proliferation"},
      {"measurement": "production of hyaluronic acid by dermal fibroblasts", "setting": "dermal fibroblasts", "result": "enhances"}
    ]}
  ]
}
